Laboratory results taken from US7994185B2, “Benzene sulfonamide thiazole and oxazole compounds” (Glaxo Smith Kline LLC, priority 2008, dated 2011).
Where two headings read alike, the source gives them in different places.

What was measured:
[1] = target: T1, BRAFV600E full-length (amino acids 2-766) (Homo sapiens, UniProt P15056, V600E); experiment: B-Raf Accelerated MEK ATPase assay (BRAMA); format: biochemical; conditions: categorized
T1 construct: His6-tagged BRAFV600E full-length (amino acids 2-766); His6; made in house; host or cells: baculovirus expression system (insect cells)
T1 sequence (P15056 2-766 V600E): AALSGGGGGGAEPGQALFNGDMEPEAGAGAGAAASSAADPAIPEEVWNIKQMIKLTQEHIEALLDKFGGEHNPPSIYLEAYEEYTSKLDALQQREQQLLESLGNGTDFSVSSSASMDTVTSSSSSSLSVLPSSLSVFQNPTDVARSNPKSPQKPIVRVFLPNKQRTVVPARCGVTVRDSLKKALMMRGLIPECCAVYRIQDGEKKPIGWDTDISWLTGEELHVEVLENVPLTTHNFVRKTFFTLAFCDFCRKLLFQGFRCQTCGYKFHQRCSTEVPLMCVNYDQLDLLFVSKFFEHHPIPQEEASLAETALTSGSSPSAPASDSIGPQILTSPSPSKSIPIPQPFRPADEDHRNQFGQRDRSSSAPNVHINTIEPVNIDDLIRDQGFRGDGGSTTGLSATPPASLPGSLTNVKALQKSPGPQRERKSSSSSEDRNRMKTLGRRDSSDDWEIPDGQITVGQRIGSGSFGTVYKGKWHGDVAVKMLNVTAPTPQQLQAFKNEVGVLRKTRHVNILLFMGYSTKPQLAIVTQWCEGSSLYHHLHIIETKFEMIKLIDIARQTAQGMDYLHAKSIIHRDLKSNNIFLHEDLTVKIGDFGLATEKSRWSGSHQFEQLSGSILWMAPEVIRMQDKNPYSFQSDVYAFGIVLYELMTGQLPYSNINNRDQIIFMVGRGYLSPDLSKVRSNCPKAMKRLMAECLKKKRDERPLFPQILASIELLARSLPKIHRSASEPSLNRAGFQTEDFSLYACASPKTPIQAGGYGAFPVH
Outline: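 Coupled-enzyme readout: ADP generated by MEK-mediated ATP hydrolysis, uncoupled from ERK phosphorylation, is linked to NADH oxidation through pyruvate kinase and lactate dehydrogenase.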

[2] = tested on: Human colon tumor cells (Colo205); experiment: Cell growth inhibition assay (CellTiter-Glo), Colo205; format: cell-based
Outline: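 Luminescent ATP read-out (CellTiter-Glo) served as a proxy for cell number; percent growth inhibition was calculated against DMSO vehicle wells. Cells were treated for 3 days at 37 °C with serially diluted compound, 0.2% DMSO final.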

[3] = tested on: Human melanoma cancer cells (SK-MEL-28); experiment: Cell growth inhibition assay (CellTiter-Glo), SK-MEL-28; format: cell-based
[4] = B-Raf Activity, Table 1a, highest pIC50 for the one or more runs
[5] = B-Raf pIC50, Table 1b, later runs, average pIC50 for the one or more runs
[6] = COLO 205, 72 h, Table 2a, 3 days incubation, read-out: Activity in Colo205 Tumor Cells
[7] = COLO 205, Table 2b, later runs, average for the one or more runs, categorized, read-out: IC50 for Colo205
[8] = SK-MEL-28, 72 h, Table 3a, 3 days incubation, read-out: Activity in SK-MEL-28 Tumor Cells
[9] = SK-MEL-28, Table 3b, later runs, average for the one or more runs, categorized, read-out: IC50 for SK-MEL-28
[10] = Table 1b, later runs, average pIC50 for the one or more runs, read-out: B-Raf pIC50 (converted)

SMILES: CS(=O)(=O)CCNc1nccc(-c2sc(N3CCOCC3)nc2-c2ccc(F)c(NS(=O)(=O)c3c(F)cccc3F)c2)n1 [Example 202]
- IC50 [1, 4]: < 100 nM
- IC50 [1, 5]: 31.6 to 1000 nM
- IC50 [2, 6]: > 1000 nM
- IC50 [2, 7]: 1000 to 10000 nM
- IC50 [3, 8]: 100 to 1000 nM
- IC50 [3, 9]: 100 to 1000 nM

SMILES: Nc1nccc(-c2sc(C3CCOCC3)nc2-c2ccc(F)c(NS(=O)(=O)c3cc(F)ccc3F)c2)n1 [Example 68, N-{5-[5-(2-Amino-4-pyrimidinyl)-2-(tetrahydro-2H-pyran-4-yl)-1,3-thiazol-4-yl]-2-fluorophenyl}-2,5-difluorobenzenesulfonamide]
- IC50 [1, 4]: 100 to 1000 nM
- IC50 [1, 5]: 31.6 to 1000 nM
- IC50 [2, 6]: > 1000 nM
- IC50 [2, 7]: 1000 to 10000 nM
- IC50 [3, 8]: > 1000 nM
- IC50 [3, 9]: 1000 to 10000 nM

SMILES: CC(C)c1nc(-c2cccc(NS(=O)(=O)C3CC3)c2)c(-c2ccnc(NCCS(C)(=O)=O)n2)s1 [Example 52, N-{3-[2-(1-Methylethyl)-5-(2-{[2-(methylsulfonyl)ethyl]amino}-4-pyrimidinyl)-1,3-thiazol-4-yl]phenyl}cyclopropanesulfonamide]
- IC50 [1, 4]: 100 to 1000 nM
- IC50 [1, 5]: 31.6 to 1000 nM
- IC50 [2, 6]: 100 to 1000 nM
- IC50 [2, 7]: 100 to 1000 nM
- IC50 [3, 8]: 100 to 1000 nM
- IC50 [3, 9]: 100 to 1000 nM

SMILES: CCOCCNc1nccc(-c2sc(C(C)(C)C)nc2-c2cccc(NS(=O)(=O)c3cc(F)ccc3F)c2F)n1 [Example 212]
- IC50 [1, 4]: < 100 nM
- IC50 [1, 5]: ≤ 3.16 nM
- IC50 [2, 6]: < 100 nM
- IC50 [2, 7]: < 100 nM
- IC50 [3, 8]: < 100 nM
- IC50 [3, 9]: < 100 nM

SMILES: CC(C)CNc1nccc(-c2scnc2-c2cccc(NS(=O)(=O)c3c(F)cccc3F)c2)n1 [Example 115, 2,6-Difluoro-N-[3-(5-{2-[(2-methylpropyl)amino]-4-pyrimidinyl}-1,3-thiazol-4-yl)phenyl]benzenesulfonamide]
- IC50 [1, 4]: > 1000 nM
- IC50 [1, 10]: 3.16 to 31.6 nM
- IC50 [2, 6]: > 1000 nM
- IC50 [2, 7]: 1000 to 10000 nM
- IC50 [3, 8]: > 1000 nM
- IC50 [3, 9]: 1000 to 10000 nM

SMILES: Cc1ccc(S(=O)(=O)Nc2cccc(-c3nc(C(C)(C)C)sc3-c3ccnc(N)n3)c2F)cc1 [Example 146]
- IC50 [1, 4]: < 100 nM
- IC50 [1, 5]: 31.6 to 1000 nM
- IC50 [2, 6]: 100 to 1000 nM
- IC50 [2, 7]: 100 to 1000 nM
- IC50 [3, 8]: 100 to 1000 nM
- IC50 [3, 9]: 100 to 1000 nM

SMILES: CC(C)(C)c1nc(-c2cccc(NS(=O)(=O)c3cc(F)ccc3F)c2F)c(-c2ccnc(NCCNS(C)(=O)=O)n2)s1 [Example 199]
- IC50 [1, 4]: < 100 nM
- IC50 [1, 5]: ≤ 3.16 nM
- IC50 [2, 6]: < 100 nM
- IC50 [2, 7]: < 100 nM
- IC50 [3, 8]: < 100 nM
- IC50 [3, 9]: < 100 nM

SMILES: CC(C)c1nc(-c2ccc(F)c(NS(=O)(=O)c3c(F)cccc3F)c2)c(-c2ccnc(NCCN3CCOCC3)n2)s1 [Example 165]
- IC50 [1, 5]: 31.6 to 1000 nM
- IC50 [2, 6]: 100 to 1000 nM
- IC50 [2, 7]: 100 to 1000 nM
- IC50 [3, 8]: 100 to 1000 nM
- IC50 [3, 9]: 100 to 1000 nM

SMILES: CC(C)c1nc(-c2ccc(F)c(NS(=O)(=O)c3c(F)cccc3F)c2)c(-c2ccnc(NCCN(C)C)n2)s1 [Example 161]
- IC50 [1, 4]: 100 to 1000 nM
- IC50 [1, 5]: 31.6 to 1000 nM
- IC50 [2, 6]: > 1000 nM
- IC50 [2, 7]: 1000 to 10000 nM
- IC50 [3, 8]: > 1000 nM
- IC50 [3, 9]: 1000 to 10000 nM

SMILES: CC(C)c1nc(-c2ccc(F)c(NS(=O)(=O)c3ccco3)c2)c(-c2ccnc(NC3CCN(S(C)(=O)=O)CC3)n2)s1 [Example 151]
- IC50 [1, 4]: < 100 nM
- IC50 [1, 10]: 3.16 to 31.6 nM
- IC50 [2, 6]: 100 to 1000 nM
- IC50 [2, 7]: 100 to 1000 nM
- IC50 [3, 8]: 100 to 1000 nM
- IC50 [3, 9]: 100 to 1000 nM

SMILES: Cc1nccc(-c2sc(C(C)(C)C)nc2-c2c(F)ccc(NS(=O)(=O)c3cc(F)ccc3F)c2F)n1 [Example 262, N-{3-[2-(1,1-dimethylethyl)-5-(2-methyl-4-pyrimidinyl)-1,3-thiazol-4-yl]-2,4-difluorophenyl}-2,5-difluorobenzenesulfonamide]
- IC50 [1, 5]: ≤ 3.16 nM
- IC50 [2, 7]: < 100 nM
- IC50 [3, 9]: < 100 nM

SMILES: CC(C)(C)c1nc(-c2cccc(NS(=O)(=O)c3ccoc3)c2F)c(-c2ccncn2)s1 [Example 256, N-{3-[2-(1,1-dimethylethyl)-5-(4-pyrimidinyl)-1,3-thiazol-4-yl]-2-fluorophenyl}-3-furansulfonamide]
- IC50 [1, 5]: ≤ 3.16 nM
- IC50 [2, 7]: < 100 nM
- IC50 [3, 9]: < 100 nM
